Results reported in patent US20230011869A1 (Hoffmann-La Roche Inc., priority 2018, published 2023).
Counter-ions that a name gives are not always drawn. Like-named read-outs stand apart in the source and are kept apart here.

System: Acinetobacter baumannii ATCC17978
Experiment: Antimicrobial susceptibility testing: 90% growth inhibitory concentration (IC90) determination, Iso-Sensitest broth
Format: cell-based
How it was run: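 A. baumannii ATCC17978 grown in Iso-Sensitest broth across 10 compound concentrations at 35±2 °C.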

[1] = 90% growth inhibitory concentration, Acinetobacter baumannii ATCC17978, Iso-Sensitest broth, OD 600 nm over 16 h, read-out: ATCC17978 IC90
[2] = Acinetobacter baumannii, ATCC17978, 16 h, read-out: ATCC17978 IC90, 90% growth inhibitory concentration, Acinetobacter baumannii ATCC17978, Iso-Sensitest broth, OD 600 nm over 16 h

IC90 [1] [nM] | SMILES | IC90 [2] [nM]
370 | CCc1cc(Nc2nccn3c(-c4ccc(OC)c(F)c4)cnc23)ccc1C(=O)N1CCN(C(=O)CNC)CC1 [Example 398, 1-[4-[2-ethyl-4-[[3-(3-fluoro-4-methoxyphenyl)imidazo[1,2-a]pyrazin-8-yl]amino]benzoyl]piperazin-1-yl]-2-(methylamino)ethanone; hy-drochloride] | 
380 | COc1ccc(-c2cnc3c(Nc4ccc(C(=O)N5CCC(CNCCC#N)CC5)c(C)c4)nccn23)cc1 [Example 399, 3-[[1-[4-[[3-(4-methoxyphenyl)imidazo[1,2-a]pyrazin-8-yl]amino]-2-methylbenzoyl]piperidin-4-yl]methylamino]propanenitrile] | 
 | COc1ccc(-c2cnc3c(Nc4ccc(C(=O)N5CCC(C(=O)N6CC7(CNC7)C6)CC5)c(C)c4)nccn23)cc1F [Example 400, [4-(2,6-diazaspiro[3.3]heptane-2-carbonyl)piperidin-1-yl]-[4-[[3-(3-fluoro-4-methoxyphenyl)imidazo[1,2-a]pyrazin-8-yl]amino]-2-methylphenyl]methanone; 2,2,2-trifluoroacetic acid] | 390
400 | COc1ccc(-c2cnc3c(Nc4ccc(C(=O)N5CCC(N6CCC(O)CC6)CC5)c(C)c4)nccn23)cc1F [Example 401, [4-[[3-(3-fluoro-4-methoxyphenyl)imidazo[1,2-a]pyrazin-8-yl]amino]-2-methylphenyl]-[4-(4-hydroxypiperidin-1-yl)piperidin-1-yl]methanone] | 
430 | COc1ccc(-c2cnc3c(Nc4ccc(C(=O)N5CCC(C(=O)NCC(O)CO)CC5)c(C)c4)nccn23)cc1F (centres unmarked) [Example 402, N-(2,3-dihydroxypropyl)-1-[4-[[3-(3-fluoro-4-methoxyphenyl)imidazo[1,2-a]pyrazin-8-yl]amino]-2-methylbenzoyl]piperidine-4-carboxamide] | 
 | COc1ccc(-c2cnc3c(Nc4ccc(C(=O)N5CCC(C(=O)NCC6CNCCN6)CC5)c(C)c4)nccn23)cc1F (centres unmarked) [Example 403, 1-[4-[[3-(3-fluoro-4-methoxyphenyl)imidazo[1,2-a]pyrazin-8-yl]amino]-2-methylbenzoyl]-N-(piperazin-2-ylmethyl)piperidine-4-carboxamide; 2,2,2-trifluoroacetic acid] | 440
 | Cc1cc(Nc2nccn3c(-c4ccc(OC(F)F)cc4)cnc23)ccc1C(=O)N1CCC(C(=O)N(C)CCN2CCNC(=O)C2)CC1 [Example 404, 1-[4-[[3-[4-(difluoromethoxy)phenyl]imi-dazo[1,2-a]pyrazin-8-yl]amino]-2-methylbenzoyl]-N-methyl-N-[2-(3-oxopiperazin-1-yl)ethyl]piperidine-4-carboxamide] | 470
 | Cc1cc(Nc2nccn3c(-c4ccc(OC(F)F)cc4)cnc23)ccc1C(=O)N1CCC(C(=O)NC23CN4CN(CN(C4)C2)C3)CC1 [Example 405, 1-[4-[[3-[4-(difluoromethoxy)phenyl]imi-dazo[1,2-a]pyrazin-8-yl]amino]-2-methylbenzoyl]-N-(1,3,5-triazatricyclo[3.3.1.1^3,7]decan-7-yl)piperidine-4-carboxamide] | 480
 | COc1ccc(-c2cnc3c(Nc4ccc(C(=O)N5CCC(C(=O)N(C)CCCN)CC5)c(C)c4)nccn23)cc1F [Example 406, N-(3-aminopropyl)-1-[4-[[3-(3-fluoro-4-methoxyphenyl)imidazo[1,2-a]pyrazin-8-yl]amino]-2-methylbenzoyl]-N-methylpiperidine-4-carboxamide; hydrochloride] | 530
 | COc1ccc(-c2cnc3c(Nc4ccc(C(=O)N5CCC(C(=O)NC6(C(N)=O)CNC6)CC5)c(C)c4)nccn23)cc1F [Example 407, N-(3-carbamoylazetidin-3-yl)-1-[4-[[3-(3-fluoro-4-methoxyphenyl)imidazo[1,2-a]pyrazin-8-yl]amino]-2-methylbenzoyl]piperidine-4-carboxamide; 2,2,2-trifluoroacetic acid] | 540
550 | COc1ccc(-c2cnc3c(Nc4ccc(C(=O)N5CCN(S(=O)(=O)N(C)C)CC5)c(C)c4)nccn23)cc1F [Example 408, 4-[4-[[3-(3-fluoro-4-methoxyphenyl)imidazo[1,2-a]pyrazin-8-yl]amino]-2-methylbenzoyl]-N,N-dimethylpiperazine-1-sulfonamide] | 
 | Cc1cc(Nc2nccn3c(-c4ccc(OC(F)F)cc4)cnc23)ccc1C(=O)N1CCC(C(=O)N(C)CCO)CC1 [Example 409, 1-[4-[[3-[4-(difluoromethoxy)phenyl]imi-dazo[1,2-a]pyrazin-8-yl]amino]-2-methylbenzoyl]-N-(2-hydroxyethyl)-N-methylpiperidine-4-carboxamide] | 580
670 | COc1ccc(-c2cnc3c(Nc4ccc(C(=O)N5CCN(CC(C)O)CC5)c(C)c4)nccn23)cc1F (centres unmarked) [Example 410, [4-[[3-(3-fluoro-4-methoxyphenyl)imidazo[1,2-a]pyrazin-8-yl]amino]-2-methylphenyl]-[4-(2-hydroxypropyl)piperazin-1-yl]methanone] | 
720 | COc1ccc(-c2cnc3c(Nc4ccc(C(=O)N5CCN(CCOCCO)CC5)c(C)c4)nccn23)cc1F [Example 411, [4-[[3-(3-fluoro-4-methoxyphenyl)imidazo[1,2-a]pyrazin-8-yl]amino]-2-methylphenyl]-[4-[2-(2-hydroxyethoxy)ethyl]pipera-zin-1-yl]methanone] | 
 | COc1ccc(-c2cnc3c(Nc4ccc(C(=O)N5CCC(C(=O)NCCN6CCNCC6=O)CC5)c(C)c4)nccn23)cc1F [Example 412, 1-[4-[[3-(3-fluoro-4-methoxyphenyl)imidazo[1,2-a]pyrazin-8-yl]amino]-2-methylbenzoyl]-N-[2-(2-oxopiperazin-1-yl)ethyl]piperidine-4-carboxamide; 2,2,2-trifluoroacetic acid] | 760
770 | COc1ccc(-c2cnc3c(Nc4ccc(C(=O)N5CC6(CNC6)C5)c(C)c4)nccn23)cc1F [Example 413, 2,6-diazaspiro[3.3]heptan-2-yl-[4-[[3-(3-fluoro-4-methoxyphenyl)imidazo[1,2-a]pyrazin-8-yl]amino]-2-methylphenyl]methanone; for-mic acid] | 
770 | COc1ccc(-c2cnc3c(Nc4ccc(C(=O)NC5CC6(CNC6)C5)c(C)c4)nccn23)cc1F [Example 414, N-(2-azaspiro[3.3]heptan-6-yl)-4-[[3-(3-fluoro-4-methoxyphenyl)imidazo[1,2-a]pyrazin-8-yl]amino]-2-methylbenzamide; hydrochlo-ride] | 
 | COc1ccc(-c2cnc3c(Nc4ccc(C(=O)N5CCNC6(CC6)C5)c(C)c4)nccn23)cc1F [Example 416, 4,7-diazaspiro[2.5]octan-7-yl-[4-[[3-(3-fluoro-4-methoxyphenyl)imidazo[1,2-a]pyrazin-8-yl]amino]-2-methylphenyl]methanone; 2,2,2-trifluoroacetic acid] | 800
960 | COc1ccc(-c2cnc3c(Nc4ccc(C(=O)N5CCC6(CNC6)C5)c(C)c4)nccn23)cc1F [Example 417, 2,6-diazaspiro[3.4]octan-6-yl-[4-[[3-(3-fluoro-4-methoxyphenyl)imidazo[1,2-a]pyrazin-8-yl]amino]-2-methylphenyl]methanone; hy-drochloride] | 
1000 | COc1ccc(-c2cnc3c(Nc4ccc(C(=O)N5CCC(C(=O)NCCn6ccnc6)CC5)c(C)c4)nccn23)cc1F [Example 418, 1-[4-[[3-(3-fluoro-4-methoxyphenyl)imidazo[1,2-a]pyrazin-8-yl]amino]-2-methylbenzoyl]-N-(2-imidazol-1-ylethyl)piperidine-4-carboxamide] | 
